Source: patent US20160015669A1, “COMPOUND, 1, 3-DIOLEIN-2-LINOLEIN, AND PHARMACEUTICAL PREPARATION AND USE THEREOF” (ZHEJIANG KANGLAITE GROUP CO., LTD., priority 2014, published 2016)
Converted amounts (≈) assume the structure as drawn. Values belong to the molecule of their own block, whether it stands above or below them.

Columns and labels:
Assay type in all cases: cell-based
[1] = tested on: PANC-1 (human pancreatic cancer cells); assay: MTT method, inhibition of cell growth in vitro; conditions: 48 h; for IC50: PANC-1, MTT
Excerpt: (§1) A. Experimental Materials and the Preparation Thereof: • (1) Cell lines: PANC-1 (human pancreatic cancer cells), SKOV3 (human ovarian cancer cells), MCF-7 (human breast cancer cells), SMMC-7721 (human liver cancer cells), A549 (human lung cancer cells), BGC-823 (human gastric cancer cells), COLO205 (human colonic cancer cells), storaged and passaged maintainably in Research and Evaluation Center for Pharmacology, Shanghai Institute of Pharmaceutical Industry; • (2) DMEM complete medium supplied with 10% newborn calf serum (GIBCO BRL), 1% of penicillin (100 U/mL)+streptomycin (100 μg/mL); • (3) 0.25% trypsin solution, purchased from Invitrogen Corp. and storaged at −20; • (4) Phosphate buffer (PBS): NaCl 8 g, KCl 0.2 g, Na2HPO4 1.15 g and KH2PO4 0.2 g, dissolved in 1 L double-distilled water and autoclaved at 121 for 20 min, then storaged at 4; • (5) MTT (AMRESCO) solution: 5 mg/ml in PBS; • (6) Formazan crystal dissolving solution: SDS 10 g, isobutanol 5 ml and concentrated hydrochloric acid 0.1 ml, dissolved in 100 ml of deionized double distilled water.
(§2) The inhibition effects of the compound of formula (I) on the above-mentioned cell lines were detected by using MTT method. The specific procedures were as follows:
(§3) (1) Cell culture: (a) Storaged cells were taken out from the liquid nitrogen, thawed quickly in a 37 water bath, then aseptically transferred into 6 ml of cellular medium in a 10 ml centrifugal tube, centrifuged at 1000 rpm for 5 min. The supernatant was discarded, then the precipitated cells were re-suspended in 5-6 ml cellular media by pipetting and transferred into a flask in a 37 incubator for cell culture; (b) Next day, the flask was taken out from the incubator and the used medium was discarded, then the cells were incubated in 5-6 ml fresh medium in the 37 incubator; (c) On the third day, the flask was taken out from the incubator and the used medium was discarded, then 2-3 ml of PBS (pH7.4) was added into the flask with rocking for cleaning it and the used PBS was discarded. Such a cellular cleaning step was repeated once again. 3-5 drops of 0.25% trypsin solution were added into the flask with sloshing, thus well-distributed in it. The flask was capped and placed in a 37 incubator for about 3 min, and the separation of cells from the flask wall was observed under the microscope. 2 ml of cellular medium was added and cells were separated completely from the flask wall by pipetting, then the cell suspension was transferred into 2 separate clean flasks, each containing 5-6 ml medium. The cell suspension was well-distributed by pipetting, then the flask was placed in a 37 incubator. (d) Step(c) was repeated every other day. In the whole cultivation process, adherent cells were not allowed to grow too dense and suspension cells were always maintained at a logarithmic growth stage.
(§4) (2) Preparation of the sample and the control: A proper amount of sample of the compound of formula (I) was dissolved in DMSO to obtain a solution in a concentration of 10 mg/ml. This solution was diluted in a gradient dilution with PBS to obtain a set of sample solutions in the concentration of 10 mg/ml, 5000 μg/ml, 2500 μg/ml, 1250 μg/ml, 625 μg/ml and 312.5 μg/ml, respectively.
(§5) (3) Each diluted sample solution was added into duplicated wells of a 96 well flat-bottom microplate (10 μl/well). The correspondingly diluted DMSO solutions, as controls, were added into the wells of the microplate.
(§6) (4) Cells in a logarithmic growth stage were trypsinized and washed, then re-suspended in the medium containing 10% calf serum. The number of living cells was counted in Trypan blue dye exclusion method and cell suspensions were adjusted into a density of 2×10^5 cell/ml.
(§7) (5) The cell-contained 96 well flat-bottom microplate was placed in a 37 incubator and cells were incubated under 5% CO2 for 48 h.
(§8) (6) 20 it of 5 mg/ml MTT solution was added into each well and cells were incubated continuously in the incubator for 3-4 h. […]

[2] = tested on: BGC-823 (human gastric cancer cells); assay: MTT method, inhibition of cell growth in vitro; conditions: 48 h; for IC50: BGC-823, MTT
Excerpt: as §1, §2, §3, §4, §5, §6, §7, §8

[3] = tested on: SMMC-7721 (human liver cancer cells); assay: MTT method, inhibition of cell growth in vitro; conditions: 48 h; for IC50: SMMC-7721, MTT
Excerpt: as §1, §2, §3, §4, §5, §6, §7, §8

[4] = tested on: COLO205 (human colonic cancer cells); assay: MTT method, inhibition of cell growth in vitro; conditions: 48 h; for IC50: COLO 205, COLO205, MTT
Excerpt: as §1, §2, §3, §4, §5, §6, §7, §8

[5] = tested on: MCF-7 (human breast cancer cells); assay: MTT method, inhibition of cell growth in vitro; conditions: 48 h
Excerpt: as §1, §2, §3, §4, §5, §6, §7, §8

[6] = tested on: A549 (human lung cancer cells); assay: MTT method, inhibition of cell growth in vitro; conditions: 48 h
Excerpt: as §1, §2, §3, §4, §5, §6, §7, §8

[7] = tested on: SKOV3 (human ovarian cancer cells); assay: MTT method, inhibition of cell growth in vitro; conditions: 48 h
Excerpt: as §1, §2, §3, §4, §5, §6, §7, §8

7 human tumor cell lines = assay: MTT method, overall conclusion on 7 human tumor cell lines; conditions: various concentrations
Excerpt: as §1
The inhibition effects of the compound of formula (I) on the above-mentioned cell lines were detected by using MTT method. The specific procedures were as follows: […]

- IC50 [1]: 0.44 µg/mL (≈ 0.515 µM)
- IC50 [2]: 0.24 µg/mL (≈ 0.281 µM)
- IC50 [3]: 0.12 µg/mL (≈ 0.141 µM)
- IC50 [4]: 0.75 µg/mL (≈ 0.878 µM)
SMILES: CC(=O)O[C@H]1C(=O)[C@@]2(C)[C@H]([C@H](OC(=O)c3ccccc3)[C@]3(O)C[C@H](OC(=O)[C@H](O)[C@@H](NC(=O)c4ccccc4)c4ccccc4)C(C)=C1C3(C)C)[C@]1(OC(C)=O)CO[C@@H]1C[C@@H]2O [Taxol, reference compound]

- IC50 [1]: 509 µg/mL
- IC50 [2]: 85 µg/mL
- IC50 ([5]; MCF7, MCF-7, MTT): 106 µg/mL
- IC50 ([6]; A549, MTT): 156 µg/mL
- IC50 [3]: 150 µg/mL
- IC50 ([7]; SK-OV-3, SKOV3, MTT): 92.6 µg/mL
- IC50 [4]: 209 µg/mL
SMILES: CCCCCC=CCC=CCCCCCCCC(=O)OC(COC(=O)CCCCCCCC=CCCCCCCCC)COC(=O)CCCCCCCC=CCCCCCCCC (centres unmarked) [compound of formula (I), 1,3-diolein-2-linolein]
- inhibition at 62.5 µg/mL ([1]; PANC-1, 62.5 μg/ml, read-out: Inhibition rate on the cell growth): 0.8%
- inhibition at 125 µg/mL ([1]; PANC-1, 125 μg/ml, read-out: Inhibition rate on the cell growth): 2.01%
- inhibition at 250 µg/mL ([1]; PANC-1, 250 μg/ml, read-out: Inhibition rate on the cell growth): 25.9%
- inhibition at 500 µg/mL ([1]; PANC-1, 500 μg/ml, read-out: Inhibition rate on the cell growth): 48.1%
- inhibition at 1000 µg/mL ([1]; PANC-1, 1000 μg/ml, read-out: Inhibition rate on the cell growth): 75%
- inhibition at 31.25 µg/mL ([2]; BGC-823, 31.25 μg/ml, read-out: Inhibition rate on the cell growth): 8.31%
- inhibition at 62.5 µg/mL ([2]; BGC-823, 62.5 μg/ml, read-out: Inhibition rate on the cell growth): 63.8%
- inhibition at 125 µg/mL ([2]; BGC-823, 125 μg/ml, read-out: Inhibition rate on the cell growth): 79%
- inhibition at 250 µg/mL ([2]; BGC-823, 250 μg/ml, read-out: Inhibition rate on the cell growth): 76.2%
- inhibition at 500 µg/mL ([2]; BGC-823, 500 μg/ml, read-out: Inhibition rate on the cell growth): 85%
- inhibition at 1000 µg/mL ([2]; BGC-823, 1000 μg/ml, read-out: Inhibition rate on the cell growth): 98.5%
- inhibition at 31.25 µg/mL ([5]; MCF7, MCF-7, 31.25 μg/ml, read-out: Inhibition rate on the cell growth): 13.3%
- inhibition at 62.5 µg/mL ([5]; MCF7, MCF-7, 62.5 μg/ml, read-out: Inhibition rate on the cell growth): 31.5%
- inhibition at 125 µg/mL ([5]; MCF7, MCF-7, 125 μg/ml, read-out: Inhibition rate on the cell growth): 62.3%
- inhibition at 250 µg/mL ([5]; MCF7, MCF-7, 250 μg/ml, read-out: Inhibition rate on the cell growth): 67.1%
- inhibition at 500 µg/mL ([5]; MCF7, MCF-7, 500 μg/ml, read-out: Inhibition rate on the cell growth): 68.8%
- inhibition at 1000 µg/mL ([5]; MCF7, MCF-7, 1000 μg/ml, read-out: Inhibition rate on the cell growth): 99.7%
- inhibition at 31.25 µg/mL ([6]; A549, 31.25 μg/ml, read-out: Inhibition rate on the cell growth): 5.16%
- inhibition at 62.5 µg/mL ([6]; A549, 62.5 μg/ml, read-out: Inhibition rate on the cell growth): 25.6%
- inhibition at 125 µg/mL ([6]; A549, 125 μg/ml, read-out: Inhibition rate on the cell growth): 46.4%
- inhibition at 250 µg/mL ([6]; A549, 250 μg/ml, read-out: Inhibition rate on the cell growth): 50.5%
- inhibition at 500 µg/mL ([6]; A549, 500 μg/ml, read-out: Inhibition rate on the cell growth): 67%
- inhibition at 1000 µg/mL ([6]; A549, 1000 μg/ml, read-out: Inhibition rate on the cell growth): 98.2%
- inhibition at 31.25 µg/mL ([3]; SMMC-7721, 31.25 μg/ml, read-out: Inhibition rate on the cell growth): 8.81%
- inhibition at 62.5 µg/mL ([3]; SMMC-7721, 62.5 μg/ml, read-out: Inhibition rate on the cell growth): 13.4%
- inhibition at 125 µg/mL ([3]; SMMC-7721, 125 μg/ml, read-out: Inhibition rate on the cell growth): 38.5%
- inhibition at 250 µg/mL ([3]; SMMC-7721, 250 μg/ml, read-out: Inhibition rate on the cell growth): 62.3%
- inhibition at 500 µg/mL ([3]; SMMC-7721, 500 μg/ml, read-out: Inhibition rate on the cell growth): 80%
- inhibition at 1000 µg/mL ([3]; SMMC-7721, 1000 μg/ml, read-out: Inhibition rate on the cell growth): 98.8%
- inhibition at 31.25 µg/mL ([7]; SK-OV-3, SKOV3, 31.25 μg/ml, read-out: Inhibition rate on the cell growth): 9.97%
- inhibition at 62.5 µg/mL ([7]; SK-OV-3, SKOV3, 62.5 μg/ml, read-out: Inhibition rate on the cell growth): 34%
- inhibition at 125 µg/mL ([7]; SK-OV-3, SKOV3, 125 μg/ml, read-out: Inhibition rate on the cell growth): 76.8%
- inhibition at 250 µg/mL ([7]; SK-OV-3, SKOV3, 250 μg/ml, read-out: Inhibition rate on the cell growth): 79.4%
- inhibition at 500 µg/mL ([7]; SK-OV-3, SKOV3, 500 μg/ml, read-out: Inhibition rate on the cell growth): 93.8%
- inhibition at 1000 µg/mL ([7]; SK-OV-3, SKOV3, 1000 μg/ml, read-out: Inhibition rate on the cell growth): 99.3%
- inhibition at 31.25 µg/mL ([4]; COLO 205, COLO205, 31.25 μg/ml, read-out: Inhibition rate on the cell growth): 8.95%
- inhibition at 62.5 µg/mL ([4]; COLO 205, COLO205, 62.5 μg/ml, read-out: Inhibition rate on the cell growth): 10.7%
- inhibition at 125 µg/mL ([4]; COLO 205, COLO205, 125 μg/ml, read-out: Inhibition rate on the cell growth): 12.6%
- inhibition at 250 µg/mL ([4]; COLO 205, COLO205, 250 μg/ml, read-out: Inhibition rate on the cell growth): 43.9%
- inhibition at 500 µg/mL ([4]; COLO 205, COLO205, 500 μg/ml, read-out: Inhibition rate on the cell growth): 82.3%
- inhibition at 1000 µg/mL ([4]; COLO 205, COLO205, 1000 μg/ml, read-out: Inhibition rate on the cell growth): 93.8%
- Inhibition on 7 human tumor cell lines (in words) (7 human tumor cell lines): obvious inhibition on 7 human tumor cell lines
